Results as given in ChEMBL document CHEMBL1201862, “PubChem BioAssay data set” (2004).
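1) Cells in 96-well plates. 2) Compound, 48 h, 5 concentrations. 3) Linear interpolation between surrounding doses. 4) Unreached endpoint = highest concentration. GI50: concentration for 50% inhibition of growth.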 Active and inactive are the calls of the source. Cut-off read from the data, not from the text of the source: active = GI50 up to about 1.1 µM and inactive = higher.

What was measured:
Test in all cases: inhibition of tumour cell growth, NCI panel, 48 h
Malme-3M = system: Malme-3M
SW-620 = system: SW-620
UO-31 = system: UO-31
NCI-H226 = system: NCI-H226
NCI-H460 = system: NCI-H460
OVCAR-3 = system: OVCAR-3
NCI-H23 = system: NCI-H23
SF-268 = system: SF-268
786-0 = system: 786-0
A549 = system: A549
KM12 = system: KM12
SNB-19 = system: SNB-19
MOLT-4 = system: MOLT-4
SK-MEL-5 = system: SK-MEL-5

Measured: GI50

O=C(COc1ccccc1)NS(=O)(=O)c1ccccc1
inactive: Malme-3M > 100 µM | SW-620 > 100 µM | UO-31 > 100 µM | NCI-H226 > 100 µM | NCI-H460 > 100 µM | OVCAR-3 > 100 µM | NCI-H23 > 100 µM | SF-268 > 100 µM | 786-0 > 100 µM | A549 > 100 µM | KM12 > 100 µM | SNB-19 > 100 µM | MOLT-4 > 100 µM

O=S(=O)(/C=C/c1ccc(Cl)cc1Cl)Cc1ccccc1CS(=O)(=O)/C=C/c1ccc(Cl)cc1Cl
inactive: SW-620 > 100 µM | UO-31 > 100 µM | NCI-H226 > 100 µM | NCI-H460 88.7 µM | OVCAR-3 > 100 µM | NCI-H23 > 100 µM | SF-268 40.5 µM | 786-0 > 100 µM | A549 18 µM | KM12 > 100 µM | SNB-19 > 100 µM | MOLT-4 88.7 µM

Cc1ccc(S(=O)(=O)N/N=C/c2oc(-c3ccccc3Cl)c(-c3ccccc3Cl)c2[N+](=O)[O-])cc1
inactive: Malme-3M 24 µM | SW-620 21 µM | UO-31 17.8 µM | SK-MEL-5 19.5 µM | NCI-H460 13.2 µM | OVCAR-3 > 100 µM | NCI-H23 13.4 µM | SF-268 36.1 µM | 786-0 19.5 µM | A549 24.2 µM | KM12 > 100 µM | SNB-19 15.6 µM | MOLT-4 11.5 µM

CCCCCCC1=NOC(C(c2cc[nH]c2)N(C)[C@H](C(=O)OC)C(C)C)C1 (some centres not stated)
inactive: Malme-3M 70.1 µM | SW-620 26.6 µM | UO-31 61.7 µM | NCI-H226 51.1 µM | SK-MEL-5 41.8 µM | OVCAR-3 25.4 µM | NCI-H23 47.8 µM | SF-268 > 100 µM | 786-0 58.9 µM | A549 62.5 µM | KM12 21.9 µM | SNB-19 65.9 µM | MOLT-4 19.4 µM

CCOC(=O)C12CCCC1(O)N(NC(=O)c1cccc(Cl)c1)C(C)=C2C(=O)OC (configuration not stated)
inactive: Malme-3M > 100 µM | SW-620 > 100 µM | UO-31 > 100 µM | NCI-H226 > 100 µM | SK-MEL-5 > 100 µM | NCI-H460 > 100 µM | OVCAR-3 > 100 µM | SF-268 > 100 µM | 786-0 > 100 µM | A549 > 100 µM | KM12 > 100 µM | SNB-19 > 100 µM | MOLT-4 55.7 µM

C[C@@H](NS(=O)(=O)c1ccc(NC(=O)c2ccccc2)cc1)C(=O)O
inactive: Malme-3M > 100 µM | SW-620 > 100 µM | UO-31 > 100 µM | SK-MEL-5 > 100 µM | NCI-H460 > 100 µM | OVCAR-3 > 100 µM | NCI-H23 > 100 µM | SF-268 > 100 µM | 786-0 > 100 µM | A549 > 100 µM | KM12 > 100 µM | SNB-19 > 100 µM | MOLT-4 > 100 µM

CCN(CC)CC(=O)NC1c2ccccc2Oc2c(C)cccc21 (configuration not stated)
inactive: SW-620 > 100 µM | UO-31 23.2 µM | NCI-H226 > 100 µM | SK-MEL-5 69.5 µM | NCI-H460 > 100 µM | NCI-H23 > 100 µM | SF-268 > 100 µM | 786-0 > 100 µM | A549 > 100 µM | SNB-19 > 100 µM | MOLT-4 62.7 µM

CC(=O)C1CCN(c2ccccc2)C1 (configuration not stated)
inactive: SW-620 > 100 µM | UO-31 > 100 µM | NCI-H226 > 100 µM | SK-MEL-5 > 100 µM | NCI-H460 > 100 µM | OVCAR-3 > 100 µM | NCI-H23 > 100 µM | SF-268 > 100 µM | 786-0 > 100 µM | A549 > 100 µM | KM12 > 100 µM | SNB-19 > 100 µM | MOLT-4 > 100 µM

N#CC12Cc3ccc4c(c3-c3cccc(c31)CCN2C(=O)c1ccccc1)OCO4 (configuration not stated)
inactive: Malme-3M 64 µM | SW-620 > 100 µM | UO-31 > 100 µM | NCI-H226 > 100 µM | SK-MEL-5 > 100 µM | OVCAR-3 > 100 µM | NCI-H23 > 100 µM | SF-268 > 100 µM | 786-0 71.6 µM | A549 > 100 µM | KM12 > 100 µM | SNB-19 > 100 µM | MOLT-4 > 100 µM

O=CC1=CCC2c3[nH]c4ccccc4c3CCN2C1 (configuration not stated)
inactive: Malme-3M 296 µM | SW-620 122 µM | NCI-H226 117 µM | SK-MEL-5 114 µM | NCI-H460 139 µM | OVCAR-3 92.5 µM | NCI-H23 83 µM | SF-268 167 µM | 786-0 141 µM | A549 > 396 µM | KM12 73.1 µM | SNB-19 258 µM | MOLT-4 90.2 µM

Clc1ccc(CCn2cncn2)c(Cl)c1
inactive: SW-620 > 100 µM | UO-31 > 100 µM | NCI-H226 > 100 µM | SK-MEL-5 > 100 µM | NCI-H460 > 100 µM | OVCAR-3 > 100 µM | NCI-H23 > 100 µM | SF-268 > 100 µM | 786-0 > 100 µM | A549 > 100 µM | KM12 > 100 µM | SNB-19 > 100 µM | MOLT-4 > 100 µM

O=C1C2C(C(=O)N1c1ccccc1)C1(c3ccccc3)OC2(c2ccccc2)c2ccccc21 (configuration not stated)
inactive: Malme-3M > 100 µM | SW-620 > 100 µM | UO-31 > 100 µM | SK-MEL-5 2.78 µM | NCI-H460 > 100 µM | OVCAR-3 > 100 µM | NCI-H23 > 100 µM | SF-268 > 100 µM | 786-0 > 100 µM | A549 > 100 µM | KM12 > 100 µM | SNB-19 > 100 µM | MOLT-4 > 100 µM

CC#CC(=O)Nc1ccccc1CC(c1c[nH]c2ccccc12)c1c[nH]c2ccccc12
inactive: Malme-3M 16.6 µM | SW-620 16.2 µM | UO-31 7.19 µM | NCI-H226 15.5 µM | SK-MEL-5 14.2 µM | OVCAR-3 18.9 µM | NCI-H23 18.8 µM | SF-268 22.7 µM | 786-0 18.3 µM | A549 20.5 µM | KM12 22.3 µM | SNB-19 18.5 µM | MOLT-4 5.68 µM

COC(=O)CC(C(C(C)=O)C(=O)OCc1ccccc1)N1C(=O)OCC1c1ccccc1 (configuration not stated)
inactive: Malme-3M > 100 µM | SW-620 > 100 µM | UO-31 44.4 µM | NCI-H226 60.5 µM | SK-MEL-5 47.8 µM | NCI-H460 75.2 µM | OVCAR-3 87.9 µM | NCI-H23 > 100 µM | SF-268 > 100 µM | 786-0 > 100 µM | A549 62.8 µM | SNB-19 > 100 µM | MOLT-4 45.9 µM

COC(=O)C1CC(=O)O[C@H]1c1ccc(OC)c(OC)c1 (some centres not stated)
inactive: Malme-3M > 100 µM | SW-620 > 100 µM | UO-31 > 100 µM | NCI-H226 > 100 µM | SK-MEL-5 > 100 µM | NCI-H460 > 100 µM | OVCAR-3 > 100 µM | NCI-H23 > 100 µM | SF-268 > 100 µM | 786-0 > 100 µM | A549 > 100 µM | KM12 > 100 µM | MOLT-4 > 100 µM
